Laboratory results as given in patent US20230063109A1, “MIXTURES COMPRISING NITRIFICATION INHIBITORS AND CARRIERS” (BASF SE, priority 2020, published 2023).

System: nitrification in soil (microbial biomass)
Test: Incubation experiment: measurement of the nitrification-inhibiting effect in soil (NH4—N recovery)
Conditions: overall summary of the experiments
Procedure: In all treatments the same nitrogen as well as the same AI (active ingredient) amounts were applied. In case of the two tested nitrification inhibitors DMPP and DMPSA it was 1% NI (nitrification inhibitor) related to the sum of NH2—N and NH4—N of the corresponding carrier fertilizer. In case of physical mixtures, in which only one part of the fertilizers was treated with a NI, the concentrations of the corresponding AI were higher so that the overall amounts of NI were the same as in the control treatment.
100 g soil (incubated at 20° C. for two weeks to activate the microbial biomass) is filled into 500 ml plastic bottles (e.g. soil sampled from the field) and is moistened to 50% water holding capacity. The fertilizers are treated with the respective products containing the compositions and mixtures of the invention in the appropriate concentration.
Granules of the treated fertilizers are evenly distributed to the soil. The amount of fertilizer which is applied corresponds to 10 mg of reduced nitrogen per bottle.
The bottles are capped loosely to allow air exchange. The bottles are then incubated at 20° C. for 28 days.
For analysis, 300 mL of a 1% K2SO4-solution is added to the bottle containing the soil and shaken for 2 hours in a horizontal shaker at 150 rpm. […] The ammonium contents of the filtrates are analyzed with an autoanalyzer at 550 nm (Merck, AA11).

Substance | inhibition of nitrification (in words)
2-(3,4-dimethyl-1H-pyrazol-1-yl)succinic acid and/or 2-(4,5-dimethyl-1H-pyrazol-1-yl)succinic acid [DMPSA] | sufficiently be inhibited
3,4-dimethyl pyrazole phosphate and/or 4,5-dimethyl pyrazole phosphate [DMPP] | sufficiently be inhibited
